Measured values as given in patent US11034650B2, “Compounds useful for treating a Mannheimia haemolytica or Histophilus somni infection” (Intervet Inc., priority 2016, dated 2021).
Converted amounts (≈) assume the structure as drawn.

Columns and labels:
Type in all cases: cell-based
[1] = tested on: Mannheimia haemolytica MH 13093 (XB0472-6014.1, BRD field isolate); experiment: MIC, broth-microdilution (CLSI VET01-A4), strain MH 13093; details: Mannheimia haemolytica strain MH 13093, broth-microdilution; unit assumed
Description: (§1) For example, representative compounds were tested against ***, Mannheimia haemolytica and Pasteurella multocida, using the conventional broth-dilution assay.
(§2) The Minimum inhibitory concentrations (MIC) of compounds according to the invention for a number of veterinary bacterial pathogens were determined by the broth-microdilution method according to CLSI document VET01-A4.
(§3) Microdilution trays containing a doubling dilution series of the test compound were used for the tests. The MIC results were interpreted according to the CLSI documents VET01-S3. The lowest concentration of compound at which no visible growth (i.e. no turbidity) detected by the unaided eye was recorded as the MIC.

[2] = tested on: Mannheimia haemolytica MH 13065 (XB0446-6003.9, BRD field isolate); experiment: MIC, broth-microdilution (CLSI VET01-A4), strain MH 13065; details: Mannheimia haemolytica strain MH 13065, broth-microdilution; unit assumed
Description: as §1, §2, §3

[3] = tested on: Mannheimia haemolytica MH 6357 (M7/2, reference strain, cattle infection strain); experiment: MIC, broth-microdilution (CLSI VET01-A4), strain MH 6357; details: Mannheimia haemolytica strain MH 6357, broth-microdilution; unit assumed
Description: as §1, §2, §3

[4] = tested on: Pasteurella multocida PM 10775 (080130003051, BRD field isolate); experiment: MIC, broth-microdilution (CLSI VET01-A4), strain PM 10775; details: Pasteurella multocida strain PM 10775, broth-microdilution; unit assumed
Description: as §1, §2, §3

[5] = tested on: Pasteurella multocida PM 12080 (IV102277-0093, BRD field isolate); experiment: MIC, broth-microdilution (CLSI VET01-A4), strain PM 12080; details: Pasteurella multocida strain PM 12080, broth-microdilution; unit assumed
Description: as §1, §2, §3

[6] = tested on: Mannheimia haemolytica MH 10720 (154, BRD field isolate); experiment: MIC, broth-microdilution (CLSI VET01-A4), strain MH 10720; details: Mannheimia haemolytica strain MH 10720, broth-microdilution; unit assumed
Description: as §1, §2, §3

[7] = tested on: Mannheimia haemolytica MH 6374 (ATCC 33396, reference strain); experiment: MIC, broth-microdilution (CLSI VET01-A4), strain MH 6374; details: Mannheimia haemolytica strain MH 6374, broth-microdilution; unit assumed
Description: as §1, §2, §3

[8] = tested on: Mannheimia haemolytica MH 12587 (1071, BRD field isolate, macrolide-resistance: erm+, E+); experiment: MIC, broth-microdilution (CLSI VET01-A4), strain MH 12587; details: Mannheimia haemolytica strain MH 12587, broth-microdilution; unit assumed
Description: as §1, §2, §3

[9] = tested on: Pasteurella multocida PM 6267 (P 2225 (L386), reference strain, mouse infection strain); experiment: MIC, broth-microdilution (CLSI VET01-A4), strain PM 6267; details: Pasteurella multocida strain PM 6267, broth-microdilution; unit assumed
Description: as §1, §2, §3

SMILES | MIC MH 13093 [1] [µg/mL] | MIC MH 13065 [2] [µg/mL] | MIC MH 6357 [3] [µg/mL] | MIC PM 10775 [4] [µg/mL] | MIC PM 12080 [5] [µg/mL] | MIC MH 10720 [6] [µg/mL] | MIC MH 6374 [7] [µg/mL] | MIC MH 12587 [8] [µg/mL] | MIC PM 6267 [9] [µg/mL]
COc1ccc(CNCc2ccc(C#Cc3ccc(C(=O)N[C@H](C(=O)NO)C(C)C)cc3)cc2)cc1 [Compound 107] | 0.8 (≈ 1.65 µM) | 0.8 (≈ 1.65 µM) | 3.1 (≈ 6.38 µM) | ≤ 0.1 | 0.4 (≈ 0.824 µM) | 0.4 (≈ 0.824 µM) | 0.8 (≈ 1.65 µM) | 3.1 (≈ 6.38 µM) | 0.2 (≈ 0.412 µM)
CC(C)[C@H](NC(=O)c1ccc(C#Cc2ccc(CNCc3ccc(N(C)C)cc3)cc2)cc1)C(=O)NO [Compound 108] | 3.1 (≈ 6.22 µM) | 1.6 (≈ 3.21 µM) | 3.1 (≈ 6.22 µM) | ≤ 0.1 | 1.6 (≈ 3.21 µM) | 1.6 (≈ 3.21 µM) | 1.6 (≈ 3.21 µM) | 3.1 (≈ 6.22 µM) | 0.4 (≈ 0.802 µM)
CC(C)[C@H](NC(=O)c1ccc(C#Cc2ccc(CNCc3ccncc3)cc2)cc1)C(=O)NO [Compound 110] | 0.4 (≈ 0.876 µM) | 0.4 (≈ 0.876 µM) | 1.6 (≈ 3.5 µM) | ≤ 0.1 | 0.2 (≈ 0.438 µM) | ≤ 0.1 | 0.4 (≈ 0.876 µM) | 0.8 (≈ 1.75 µM) | ≤ 0.1
Cc1ccc(CNCc2ccc(C#Cc3ccc(C(=O)N[C@H](C(=O)NO)C(C)C)cc3)cc2)cc1C [Compound 111] | 3.1 (≈ 6.41 µM) | 3.1 (≈ 6.41 µM) | 3.1 (≈ 6.41 µM) | 0.4 (≈ 0.827 µM) | 1.6 (≈ 3.31 µM) | 0.8 (≈ 1.65 µM) | 3.1 (≈ 6.41 µM) | 12.5 (≈ 25.8 µM) | 0.8 (≈ 1.65 µM)
CC[C@H](C)[C@H](NC(=O)c1ccc(C#Cc2ccc(CNC3CC3)cc2)cc1)C(=O)NO [Compound 112] | 0.4 (≈ 0.953 µM) | 0.4 (≈ 0.953 µM) | 1.6 (≈ 3.81 µM) | ≤ 0.1 | 0.2 (≈ 0.477 µM) | ≤ 0.1 | 0.4 (≈ 0.953 µM) | 0.8 (≈ 1.91 µM) | ≤ 0.1
C=CCNCc1ccc(C#Cc2ccc(C(=O)N[C@H](C(=O)NO)[C@@H](C)CC)cc2)cc1 [Compound 113] | 3.1 (≈ 7.39 µM) | 1.6 (≈ 3.81 µM) | 3.1 (≈ 7.39 µM) | ≤ 0.1 | 0.8 (≈ 1.91 µM) | 0.4 (≈ 0.953 µM) | 0.8 (≈ 1.91 µM) | 3.1 (≈ 7.39 µM) | 0.4 (≈ 0.953 µM)
CC[C@H](C)[C@H](NC(=O)c1ccc(C#Cc2ccc(CNCC(C)(C)C)cc2)cc1)C(=O)NO [Compound 114] | 6.3 (≈ 14 µM) | 6.3 (≈ 14 µM) | 6.3 (≈ 14 µM) | ≤ 0.1 | 0.8 (≈ 1.78 µM) | 1.6 (≈ 3.56 µM) | 12.5 (≈ 27.8 µM) | 12.5 (≈ 27.8 µM) | 0.2 (≈ 0.445 µM)
CC[C@H](C)[C@H](NC(=O)c1ccc(C#Cc2ccc(CNCCOC)cc2)cc1)C(=O)NO [Compound 115] | 3.1 (≈ 7.09 µM) | 3.1 (≈ 7.09 µM) | 6.3 (≈ 14.4 µM) | ≤ 0.1 | 1.6 (≈ 3.66 µM) | 0.8 (≈ 1.83 µM) | 1.6 (≈ 3.66 µM) | 6.3 (≈ 14.4 µM) | 0.4 (≈ 0.914 µM)
CC[C@H](C)[C@H](NC(=O)c1ccc(C#Cc2ccc(CNCCN(C)C)cc2)cc1)C(=O)NO [Compound 116] | 25 (≈ 55.5 µM) | 25 (≈ 55.5 µM) | 25 (≈ 55.5 µM) | 0.4 (≈ 0.888 µM) | 3.1 (≈ 6.88 µM) | 3.1 (≈ 6.88 µM) | 25 (≈ 55.5 µM) | 1 (≈ 2.22 µM) | 0.8 (≈ 1.78 µM)
CC[C@H](C)[C@H](NC(=O)c1ccc(C#Cc2ccc(CN(CC)CC)cc2)cc1)C(=O)NO [Compound 118] | 12.5 (≈ 28.7 µM) | 12.5 (≈ 28.7 µM) | 6.3 (≈ 14.5 µM) | 0.2 (≈ 0.459 µM) | 1.6 (≈ 3.67 µM) | 3.1 (≈ 7.12 µM) | 12.5 (≈ 28.7 µM) | 25 (≈ 57.4 µM) | 0.4 (≈ 0.918 µM)
CC[C@H](C)[C@H](NC(=O)c1ccc(C#Cc2ccc(CN3CCOCC3)cc2)cc1)C(=O)NO [Compound 119] | 3.1 (≈ 6.9 µM) | 1.6 (≈ 3.56 µM) | 1.6 (≈ 3.56 µM) | ≤ 0.1 | ≤ 0.1 | 0.4 (≈ 0.89 µM) | 1.6 (≈ 3.56 µM) | 3.1 (≈ 6.9 µM) | ≤ 0.1
